Laboratory results taken from USRE43274E1, “Fluorinated photosensitizers related to chlorins and bacteriochlorins for photodynamic therapy” (Health Research, Inc., priority 2002, dated 2012).

Legend:
[1] = Electronic absorption spectra in dichloromethane; format: physicochemical
Protocol: The electronic absorption spectra of PHOTOFRIN® (a porphyrin analog), HPPH (a chlorin bearing a five-membered isocyclic ring) and the purpurinimide 9 (a chlorin with an expanded, six-membered fused imide ring) were measured in dichloromethane at the same molar concentrations.

RIF tumors = experiment: In vivo photosensitizing (PDT) efficacy, tumor response in C3H mice transplanted with RIF tumors; set-up: species or system mouse
Protocol: In brief, C3H/HEJ mice were subjected to intradermal injection with 2×10^5 RIF cells in […] HBSS w/o Ca^+2 and magnesium, into the flank and allowed to grow until they were 4-5 mm in diameter. The day before tumors were treatment size, the mice were injected with variable doses of substantially pure photosensitizers (1.0 mg/kg, 0.4 mg/kg). […] The mice (6 mice/group in two groups) were checked daily, the tumors were measured using two orthogonal measurements L and W (perpendicular to L) and the volumes were calculated using the formula V=L×W^2/2 and recorded. Mice were considered cured if there was no palpable tumor at 90 days post-PDT treatment.
In the control group, six mice were exposed to light without injecting any photosensitizer.
The in vivo photosensitizing efficacy of bacteriochlorins 16 and 18 was determined in C3H mice (5 mice/group) at variable concentration up to 1.0 μmol/Kg.

[2] = Stability of Schiff base 17 / amine 18 (in vivo reflectance spectroscopy); details: 17: in vivo, converted into acetyl analog 15, determined by in vivo reflectance spectroscopy
Protocol: For example, when the reaction was performed at elevated temperature, the N-fluorinated derivative 15 and the corresponding Schiff base 17 (obtained from the reaction of the 3-acetyl group with an amine) was isolated in almost equal ratio. However, at low temperature, 3-acetyl-N-substituted-bacteriopurpurinimide 15 was isolated as a major product. Bacteriochlorin 15 on reaction with sodium borohydride and then with HBr gas followed by a reaction with n-butyl alcohol produced the corresponding butyl ether derivative 16. […] However, reduction of 17 with sodium borohydride at room temperature produced stable amine 18. See Scheme 2.

[3] = dose 1.0 μmol/Kg, day 90, C3H mice

HPPH
red-shift compared with PHOTOFRIN [1]: 30 nm | ε (long wavelength absorption) ([1]; same molar concentrations): 45,000 | λmax (long wavelength absorption) ([1]; same molar concentrations): 660 nm

purpurin-18-N-butyl-3-O-{1′-3″,5″-bis(trifluoromethyl)-benzyl ether}imide [compound 12]
tumor response (RIF tumors; dose 0.4 mg/kg, light 706 nm, 135 J/cm2 at 24 hours post-injection, day 90, C3H/HeJ mice): 66%

CCC1c2cc3[nH]c4c(c5nc(cc6[nH]c(cc(n2)C1C)c(C(C)NCc1cc(C(F)(F)F)cc(C(F)(F)F)c1)c6C)[C@@H](C)[C@@H]5CCC(=O)OC)C(=O)N(Cc1cc(C(F)(F)F)cc(C(F)(F)F)c1)C(=O)c4c3C (stereo partly shown) [compound 18]
mice tumor free (RIF tumors; [3]): 3/5 | tumor response (RIF tumors; [3]): 60% | stability [2]: stable
